Laboratory results as given in ChEMBL document CHEMBL1909046, “DrugMatrix in vitro pharmacology data”.
*1 amine or outer side, *2 acyl side, *3 side chain or, on linkers, in order; H or OH if unused. Where a SMILES comes first, the peptide text is derived from it. Bridges are numbered along the chain shown (N, C = ends). Roman numbers before positions name the chains, in order. [ ]: non-standard residue; d: D form. Actinocin(1to9) = Cc1c2oc3c(C)ccc(C(=O)[*:2])c3nc-2c(C(=O)[*:1])c(N)c1=O; NMeV = CN[C@H](C(=O)O)C(C)C; Sar = CNCC(=O)O

Assays:
Glycine receptor = Glycine receptor (Rattus norvegicus, UniProt P22771+P24524+P07727+P20781); assay type: cell membranes, Wistar, Spinal cord, Membrane; note: in other assays of this panel Not Active means under 50% inhibition at 10 µM
Vasopressin V1a receptor = Vasopressin V1a receptor (Homo sapiens, UniProt P37288); assay type: cell membranes, Membrane; details: hek293; note: in other assays of this panel Not Active means under 50% inhibition at 10 µM
Chain of Vasopressin V1a receptor (P37288 whole entry): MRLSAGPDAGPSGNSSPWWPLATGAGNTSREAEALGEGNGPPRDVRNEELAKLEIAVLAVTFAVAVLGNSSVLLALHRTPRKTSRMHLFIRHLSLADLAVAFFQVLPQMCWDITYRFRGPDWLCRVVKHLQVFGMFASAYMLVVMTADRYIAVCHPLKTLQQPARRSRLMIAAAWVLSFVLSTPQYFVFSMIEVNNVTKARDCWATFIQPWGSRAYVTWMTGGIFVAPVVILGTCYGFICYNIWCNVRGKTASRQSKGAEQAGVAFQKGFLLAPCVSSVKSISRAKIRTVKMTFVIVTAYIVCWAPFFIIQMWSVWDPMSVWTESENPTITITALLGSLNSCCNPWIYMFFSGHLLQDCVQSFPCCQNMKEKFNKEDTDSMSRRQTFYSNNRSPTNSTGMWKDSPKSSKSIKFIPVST

[1] = DRUGMATRIX: GABAA, Chloride Channel, TBOB radioligand binding (ligand: [3H] TBOB); assay type: cell membranes, Rattus norvegicus, Wistar, Cerebral cortex, Membrane; details: Not Active = under 50% inhibition at 10 µM
Interstitial collagenase = molecular target: T1, Interstitial collagenase (Homo sapiens, UniProt P03956); test: biochemical; assay type: tissue-based, Rheumatoid synovial fibroblasts;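 note: MMP-1 enzyme inhibition assay using a peptide substrate; in other assays of this panel Not Active means under 50% inhibition at 10 µM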
T1 sequence (P03956 whole entry): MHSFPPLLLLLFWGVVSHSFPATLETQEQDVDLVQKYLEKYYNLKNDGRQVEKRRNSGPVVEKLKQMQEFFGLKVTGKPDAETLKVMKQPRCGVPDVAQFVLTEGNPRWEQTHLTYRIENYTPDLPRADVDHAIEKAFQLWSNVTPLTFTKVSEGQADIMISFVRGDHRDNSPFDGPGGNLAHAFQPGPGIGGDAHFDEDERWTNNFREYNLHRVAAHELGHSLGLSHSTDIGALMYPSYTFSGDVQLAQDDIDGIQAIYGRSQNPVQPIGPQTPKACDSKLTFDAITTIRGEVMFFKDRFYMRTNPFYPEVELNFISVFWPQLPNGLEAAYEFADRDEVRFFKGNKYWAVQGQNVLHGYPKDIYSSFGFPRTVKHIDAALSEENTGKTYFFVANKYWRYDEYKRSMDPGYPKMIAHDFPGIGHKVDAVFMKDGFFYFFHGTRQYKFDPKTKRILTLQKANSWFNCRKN

[2] = molecular target: Platelet-activating factor receptor (Homo sapiens, UniProt P25105); assay type: tissue-based; note: in other assays of this panel Not Active means under 50% inhibition at 10 µM
Chain of Platelet-activating factor receptor (P25105 whole entry): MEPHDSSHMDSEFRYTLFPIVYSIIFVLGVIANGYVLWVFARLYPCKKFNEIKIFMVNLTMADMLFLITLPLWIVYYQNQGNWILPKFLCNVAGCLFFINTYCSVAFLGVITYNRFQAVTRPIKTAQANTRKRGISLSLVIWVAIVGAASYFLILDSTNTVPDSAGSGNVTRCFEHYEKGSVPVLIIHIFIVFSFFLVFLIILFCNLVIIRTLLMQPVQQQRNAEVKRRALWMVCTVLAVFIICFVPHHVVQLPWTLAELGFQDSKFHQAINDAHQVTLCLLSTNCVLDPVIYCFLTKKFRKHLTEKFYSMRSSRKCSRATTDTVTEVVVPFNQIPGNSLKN

[3] = molecular target: 5-hydroxytryptamine receptor 2B (Homo sapiens, UniProt P41595); assay type: cell membranes, CHO-K1, Membrane; note: in other assays of this panel Not Active means under 50% inhibition at 10 µM
Chain of 5-hydroxytryptamine receptor 2B (P41595 whole entry): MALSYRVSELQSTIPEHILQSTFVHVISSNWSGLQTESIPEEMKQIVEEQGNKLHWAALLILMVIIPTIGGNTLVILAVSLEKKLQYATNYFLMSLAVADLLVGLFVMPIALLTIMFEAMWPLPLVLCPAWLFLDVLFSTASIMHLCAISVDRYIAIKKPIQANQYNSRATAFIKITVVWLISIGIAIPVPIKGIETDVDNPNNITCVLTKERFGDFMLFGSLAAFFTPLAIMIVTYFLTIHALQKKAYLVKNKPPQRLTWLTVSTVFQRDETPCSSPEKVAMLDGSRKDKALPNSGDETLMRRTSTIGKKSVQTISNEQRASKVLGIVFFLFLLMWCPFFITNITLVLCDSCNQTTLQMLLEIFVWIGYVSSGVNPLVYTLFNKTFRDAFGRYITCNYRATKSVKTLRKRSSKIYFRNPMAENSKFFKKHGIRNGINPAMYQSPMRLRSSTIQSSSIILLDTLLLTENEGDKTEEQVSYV

[4] = DRUGMATRIX: Glutamate, NMDA, Phencyclidine radioligand binding (ligand: [3H] TCP); assay type: cell membranes, Rattus norvegicus, Wistar, Cerebral cortex, Membrane; details: Not Active = under 50% inhibition at 10 µM

| SMILES | IC50 (Glycine receptor) | IC50 (Vasopressin V1a receptor) | IC50 [1] | Ki [1] | IC50 (Interstitial collagenase) | IC50 [2] | IC50 ([3]; cho-k1) | IC50 [4] | Ki [4] | IC50 ([3]; read-out: IC50) | Ki ([3]; read-out: Ki) |
| --- | --- | --- | --- | --- | --- | --- | --- | --- | --- | --- | --- |
| CC(C)(C)NCC(O)c1cc(Cl)c(N)c(Cl)c1 (stereo not drawn) [CLENBUTEROL] | Not Active | Not Active | Not Active | Not Active | Not Active | Not Active | Not Active | Not Active | Not Active |  |  |
| CC(C)(Oc1ccc(Cl)cc1)C(=O)O [CLOFIBRIC ACID] | Not Active | Not Active | Not Active | Not Active | Not Active | Not Active | Not Active | Not Active | Not Active |  |  |
| Clc1cccc(Cl)c1NC1=NCCN1 [CLONIDINE] | Not Active | Not Active | Not Active | Not Active | Not Active | Not Active | Not Active | Not Active | Not Active |  |  |
| Cc1cc(C(C#N)c2ccc(Cl)cc2)c(Cl)cc1NC(=O)c1cc(I)cc(I)c1O (stereo not drawn) [CLOSANTEL] | Not Active | Not Active | Not Active | Not Active | Not Active | Not Active | Not Active | Not Active | Not Active |  |  |
| Cc1onc(-c2ccccc2Cl)c1C(=O)N[C@@H]1C(=O)N2[C@@H]1SC(C)(C)[C@@H]2C(=O)O [CLOXACILLIN] | Not Active | Not Active | Not Active | Not Active | Not Active | Not Active | Not Active | Not Active | Not Active |  |  |
| CC1CC(OC(=O)C(O)c2ccccc2)CC(C)(C)C1 (stereo not drawn) [CYCLANDELATE] | Not Active | Not Active | Not Active | Not Active | Not Active | Not Active | Not Active | Not Active | Not Active |  |  |
| Cc1c2oc3c(C)ccc(C(=O)N[C@@H]4C(=O)N[C@H](C(C)C)C(=O)N5CCC[C@H]5C(=O)N(C)CC(=O)N(C)[C@@H](C(C)C)C(=O)O[C@@H]4C)c3nc-2c(C(=O)N[C@@H]2C(=O)N[C@H](C(C)C)C(=O)N3CCC[C@H]3C(=O)N(C)CC(=O)N(C)[C@@H](C(C)C)C(=O)O[C@@H]2C)c(N)c1=O [DACTINOMYCIN] (I: T[dV]P[Sar][NMeV] / II: T[dV]P[Sar][NMeV]; ester I:1-I:C, II:1-II:C; linker I:N-II:N via Actinocin(1to9)) | Not Active | Not Active | Not Active | Not Active | Not Active | Not Active | Not Active | Not Active | Not Active |  |  |
| Cc1c(O)c(=O)ccn1C [DEFERIPRONE] | Not Active | Not Active | Not Active | Not Active | Not Active | Not Active | Not Active | Not Active | Not Active |  |  |
| CNCCCN1c2ccccc2CCc2ccccc21 [DESIPRAMINE] | Not Active | Not Active | Not Active | Not Active | Not Active | Not Active | Not Active | Not Active | Not Active |  |  |
| O=c1oc2ccccc2c(O)c1Cc1c(O)c2ccccc2oc1=O [DICUMAROL] | Not Active | Not Active | Not Active | Not Active | Not Active | Not Active | Not Active | Not Active | Not Active |  |  |
| C[C@H]1O[C@@H](O[C@H]2[C@@H](O)C[C@H](O[C@H]3[C@@H](O)C[C@H](O[C@H]4CC[C@@]5(C)[C@H](CC[C@@H]6[C@@H]5C[C@@H](O)[C@]5(C)[C@@H](C7=CC(=O)OC7)CC[C@]65O)C4)O[C@@H]3C)O[C@@H]2C)C[C@H](O)[C@@H]1O [DIGOXIN] | Not Active | Not Active | Not Active | Not Active | Not Active | Not Active | Not Active | Not Active | Not Active |  |  |
| CC(C)[C@@]1(NC(=O)[C@@H]2C[C@@H]3c4cccc5[nH]cc(c45)C[C@H]3N(C)C2)O[C@@]2(O)[C@@H]3CCCN3C(=O)[C@H](Cc3ccccc3)N2C1=O.CS(=O)(=O)O [DIHYDROERGOCRISTINE MESYLATE] | Not Active | Not Active | Not Active | Not Active | Not Active | Not Active |  | Not Active | Not Active | 6.6 nM | 4.2 nM |
| CC(=O)O[C@@]12CO[C@@H]1C[C@H](O)[C@@]1(C)C(=O)[C@H](O)C3=C(C)[C@@H](OC(=O)[C@H](O)[C@@H](NC(=O)OC(C)(C)C)c4ccccc4)C[C@@](O)([C@@H](OC(=O)c4ccccc4)[C@H]21)C3(C)C.O.O.O [DOCETAXEL] | Not Active | Not Active | Not Active | Not Active | Not Active | Not Active | Not Active | Not Active | Not Active |  |  |
